Test results: patent US20230172848A1, “ORAL FILM FOR SAFE ADMINISTRATION OF API” (LABTEC GMBH, priority 2020, published 2023)
Like-named read-outs stand apart in the source and are kept apart here.

How the values were obtained:
[1] = acceptor medium of buffer pH 7.0
Method: The dosage unit prepared from formulation F6 were tested for ex-vivo permeation on porcine buccal mucosa in vertical Franz-cells.

[2] = in vivo; cited from earlier work
[3] = cited from earlier work
[4] = cited from earlier work; for required dose for induction of anesthesia: 1% solution i.v.

CC(C)c1cccc(C(C)C)c1O [propofol, 2,6-diisopropylphenol]
concentration of saturated solution [1]: about 167.8 μg/ml
oral bioavailability [2]: very low
blood level required for the sedative effect ([3]; Dhir et al., 2016): 1.5 to 2.0 µg/mL
average blood concentration required for anesthetic effect ([3]; major surgeries): 4.05 ± 1.01 µg/mL
blood concentration sufficient for anesthetic effect ([3]; minor surgical procedures): 2.97 ± 1.07 µg/mL
required dose for induction of anesthesia ([4]; adult patients aged less than 55 years): 1.5-2.5 mg/kg body weight
required dose for induction of anesthesia ([4]; children over 8 years): about 2.5 mg/kg body weight
rate of administration that maintains the anesthetic effect ([4]; adults under the age of 55): 4-12 mg/kg body weight/h
rate of administration that maintains the anesthesia ([4]; children over the age of 1 month): 9-15 mg/kg body weight/h
